Measured values reported in US6613747B2, “6-O-carbamoyl ketolide antibacterials” (Ortho-McNeil Pharmaceutical, Inc., priority 2000, dated 2003).
Values after ≈ are worked out from the molar mass of the structure shown. Like-named read-outs stand apart in the source and are kept apart here.

How the values were obtained:
Test in all cases: MIC, microdilution broth method (NCCLS)
Assay type in all cases: cell-based
E. coli OC2605 = conditions: A: E. coli OC2605, 35° C., 16-20 hours
In short: (§1)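 Growth inhibition was scored visually against compound-free control wells in each tray. Setup: NCCLS broth microdilution, cation-adjusted Mueller-Hinton medium, two-fold dilution series, approx. 5×10^4 CFU/well, 16-20 h at 35° C.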

E. faecalis ATCC29212 = conditions: C: E. faecalis ATCC29212, 35° C., 16-20 hours
In short: as §1

H. influenzae ATCC49247 = conditions: E: H. influenzae ATCC49247, 35° C., 16-20 hours
In short: as §1

S. aureus ATCC29213 = conditions: B: S. aureus ATCC29213, 35° C., 16-20 hours
In short: as §1

S. pneumoniae ATCC49619 = conditions: D: S. pneumoniae ATCC49619, 35° C., 16-20 hours
In short: as §1

| MIC (E. coli OC2605) [µg/mL] | MIC (E. faecalis ATCC29212) [µg/mL] | MIC (H. influenzae ATCC49247) [µg/mL] | MIC (S. aureus ATCC29213) [µg/mL] | MIC (S. pneumoniae ATCC49619) | MIC (E. coli OC2605; Escherichia coli, read-out: MIC) [µg/mL] | MIC (E. faecalis ATCC29212; Enterococcus faecalis, read-out: MIC) [µg/mL] | MIC (H. influenzae ATCC49247; Haemophilus influenzae, read-out: MIC) [µg/mL] | MIC (S. aureus ATCC29213; Staphylococcus aureus, read-out: MIC) [µg/mL] | MIC (S. pneumoniae ATCC49619; Streptococcus pneumoniae, read-out: MIC) [µg/mL] | SMILES |
| --- | --- | --- | --- | --- | --- | --- | --- | --- | --- | --- |
| 8 (≈ 9.82 µM) | 0.06 (≈ 0.0736 µM) | 2 (≈ 2.45 µM) | 0.25 (≈ 0.307 µM) | ≦0.015 μg/mL |  |  |  |  |  | CC[C@H]1OC(=O)[C@H](C)C(=O)[C@H](C)[C@@H](O[C@@H]2O[C@H](C)C[C@H](N(C)C)[C@H]2O)[C@](C)(OC(=O)NCc2ccc(-c3ccccn3)s2)C[C@@H](C)C(=O)[C@H](C)[C@H]2NC(=O)O[C@@]21C [Compound 56] |
| 16 (≈ 20.1 µM) | 0.06 (≈ 0.0752 µM) | 2 (≈ 2.51 µM) | 0.5 (≈ 0.627 µM) | 0.03 µg/mL (≈ 0.0376 µM) |  |  |  |  |  | CC[C@H]1OC(=O)[C@H](C)C(=O)[C@H](C)[C@@H](O[C@@H]2O[C@H](C)C[C@H](N(C)C)[C@H]2O)[C@](C)(OC(=O)NCc2cnn(-c3ccccc3)c2)C[C@@H](C)C(=O)[C@H](C)[C@H]2NC(=O)O[C@@]21C [Compound 61] |
| 16 (≈ 19.8 µM) | 0.06 (≈ 0.0741 µM) | 2 (≈ 2.47 µM) | 0.5 (≈ 0.617 µM) | 0.03 µg/mL (≈ 0.037 µM) |  |  |  |  |  | CC[C@H]1OC(=O)[C@H](C)C(=O)[C@H](C)[C@@H](O[C@@H]2O[C@H](C)C[C@H](N(C)C)[C@H]2O)[C@](C)(OC(=O)NCc2ccc(-c3cccnn3)cc2)C[C@@H](C)C(=O)[C@H](C)[C@H]2NC(=O)O[C@@]21C [Compound 97] |
| 16 (≈ 21.1 µM) | 0.25 (≈ 0.329 µM) | 2 (≈ 2.63 µM) | 1 (≈ 1.32 µM) | 0.06 µg/mL (≈ 0.079 µM) |  |  |  |  |  | CC[C@H]1OC(=O)[C@H](C)C(=O)[C@H](C)[C@@H](O[C@@H]2O[C@H](C)C[C@H](N(C)C)[C@H]2O)[C@](C)(OC(=O)NCCCc2ccccc2)C[C@@H](C)C(=O)[C@H](C)[C@H]2NC(=O)O[C@@]21C [Compound 2] |
| >16 | 1 (≈ 1.27 µM) | 16 (≈ 20.3 µM) | 8 (≈ 10.1 µM) | 0.12 µg/mL (≈ 0.152 µM) |  |  |  |  |  | CC[C@H]1OC(=O)[C@H](C)C(=O)[C@H](C)[C@@H](O[C@@H]2O[C@H](C)C[C@H](N(C)C)[C@H]2O)[C@](C)(OC(=O)NCCN(C)Cc2cccnc2)C[C@@H](C)C(=O)[C@H](C)[C@H]2NC(=O)O[C@@]21C [Compound 118] |
| >16 | 0.25 (≈ 0.323 µM) | 16 (≈ 20.7 µM) | 1 (≈ 1.29 µM) | 0.03 µg/mL (≈ 0.0388 µM) |  |  |  |  |  | CC[C@H]1OC(=O)[C@H](C)C(=O)[C@H](C)[C@@H](O[C@@H]2O[C@H](C)C[C@H](N(C)C)[C@H]2O)[C@](C)(OC(=O)NCCCCc2ccccc2)C[C@@H](C)C(=O)[C@H](C)[C@H]2NC(=O)O[C@@]21C [Compound 9] |
| 16 (≈ 19.8 µM) | 0.06 (≈ 0.0741 µM) | 2 (≈ 2.47 µM) | 0.25 (≈ 0.309 µM) | ≦0.015 μg/mL |  |  |  |  |  | CC[C@H]1OC(=O)[C@H](C)C(=O)[C@H](C)[C@@H](O[C@@H]2O[C@H](C)C[C@H](N(C)C)[C@H]2O)[C@](C)(OC(=O)NCc2ccc(-c3cnccn3)cc2)C[C@@H](C)C(=O)[C@H](C)[C@H]2NC(=O)O[C@@]21C [Compound 76] |

Continued, compound first:

| SMILES | MIC (E. coli OC2605) [µg/mL] | MIC (E. faecalis ATCC29212) [µg/mL] | MIC (H. influenzae ATCC49247) [µg/mL] | MIC (S. aureus ATCC29213) [µg/mL] | MIC (S. pneumoniae ATCC49619) | MIC (E. coli OC2605; Escherichia coli, read-out: MIC) [µg/mL] | MIC (E. faecalis ATCC29212; Enterococcus faecalis, read-out: MIC) [µg/mL] | MIC (H. influenzae ATCC49247; Haemophilus influenzae, read-out: MIC) [µg/mL] | MIC (S. aureus ATCC29213; Staphylococcus aureus, read-out: MIC) [µg/mL] | MIC (S. pneumoniae ATCC49619; Streptococcus pneumoniae, read-out: MIC) [µg/mL] |
| --- | --- | --- | --- | --- | --- | --- | --- | --- | --- | --- |
| CC[C@H]1OC(=O)[C@H](C)C(=O)[C@H](C)[C@@H](O[C@@H]2O[C@H](C)C[C@H](N(C)C)[C@H]2O)[C@](C)(OC(=O)NC/C=C/c2ccc(-c3ccccn3)s2)C[C@@H](C)C(=O)[C@H](C)[C@H]2NC(=O)O[C@@]21C [Compound 57] | 16 (≈ 19 µM) | 0.12 (≈ 0.143 µM) | 2 (≈ 2.38 µM) | 0.25 (≈ 0.297 µM) | 0.03 µg/mL (≈ 0.0357 µM) |  |  |  |  |  |
| CCC1OC(=O)C(C)(O)C(=O)C(C)C(OC2OC(C)CC(N(C)C)C2O)C(C)(OC(=O)NCC=Cc2ccc(-c3cnccn3)cc2)CC(C)C(=O)C(C)C2NC(=O)OC12C (stereo not drawn) [Compound 98] | >16 | 0.25 (≈ 0.293 µM) | 4 (≈ 4.69 µM) | 0.5 (≈ 0.587 µM) | 0.03 µg/mL (≈ 0.0352 µM) |  |  |  |  |  |
| CC[C@H]1OC(=O)[C@H](C)C(=O)[C@H](C)[C@@H](O[C@@H]2O[C@H](C)C[C@H](N(C)C)[C@H]2O)[C@](C)(OC(=O)NCCNC(=O)c2ccc(-c3ccccc3)cc2)C[C@@H](C)C(=O)[C@H](C)[C@H]2NC(=O)O[C@@]21C [Compound 111] | >16 | 0.5 (≈ 0.578 µM) | 4 (≈ 4.62 µM) | 1 (≈ 1.16 µM) | 0.06 µg/mL (≈ 0.0694 µM) |  |  |  |  |  |
| CCC1OC(=O)C(C)(F)C(=O)C(C)C(OC2OC(C)CC(N(C)C)C2O)C(C)(OC(=O)NCc2ccc(-c3ncccn3)cc2)CC(C)C(=NO)C(C)C2NC(=O)OC12C (stereo not drawn) [Compound 128] | >16 | 2 (≈ 2.37 µM) | 8 (≈ 9.49 µM) | 4 (≈ 4.75 µM) | 0.25 µg/mL (≈ 0.297 µM) |  |  |  |  |  |
| CC[C@H]1OC(=O)[C@H](C)C(=O)[C@H](C)[C@@H](O[C@@H]2O[C@H](C)C[C@H](N(C)C)[C@H]2O)[C@](C)(OC(=O)NC/C=C/c2ccc(-c3cnccn3)cc2)C[C@@H](C)C(=O)[C@H](C)[C@H]2NC(=O)O[C@@]21C [Compound 77, Carbamic acid, [(2E)-3-(4-pyrazinylphenyl)-2-propenyl]-, (3aS,4R,7R,9R,10R,11R,13R,15R,15aR)-4-ethyltetradecahydro-3a,7,9,11,13,15-hexamethyl-2,6,8,14-tetraoxo-10-[[3,4,6-trideoxy-3-(dimethylamino)-β-D-xylo-hexopyranosyl]oxy]-2H-oxacyclotetradecino[4,3-d]oxazol-11-yl ester] |  |  |  |  |  | 16 (≈ 19.1 µM) | 0.12 (≈ 0.144 µM) | 4 (≈ 4.78 µM) | 0.12 (≈ 0.144 µM) | 0.03 (≈ 0.0359 µM) |
| CC[C@H]1OC(=O)[C@H](C)C(=O)[C@H](C)[C@@H](O[C@@H]2O[C@H](C)C[C@H](N(C)C)[C@H]2O)[C@](C)(OC(=O)NCCNCc2ccc(-c3ncccn3)cc2)C[C@@H](C)C(=O)[C@H](C)[C@H]2NC(=O)O[C@@]21C [Compound 115] | >16 | 0.5 (≈ 0.586 µM) | 16 (≈ 18.8 µM) | 2 (≈ 2.34 µM) | 0.06 µg/mL (≈ 0.0703 µM) |  |  |  |  |  |
| CC[C@H]1OC(=O)[C@H](C)C(=O)[C@H](C)[C@@H](O[C@@H]2O[C@H](C)C[C@H](N(C)C)[C@H]2O)[C@](C)(OC(=O)NC/C=C/c2ccc(-c3ncccn3)cc2)C[C@@H](C)C(=NO)[C@H](C)[C@H]2NC(=O)O[C@@]21C [Compound 133] | 16 (≈ 18.8 µM) | 0.25 (≈ 0.294 µM) | 2 (≈ 2.35 µM) | 0.25 (≈ 0.294 µM) | 0.03 µg/mL (≈ 0.0353 µM) |  |  |  |  |  |
| CC[C@H]1OC(=O)[C@H](C)C(=O)[C@H](C)[C@@H](O[C@@H]2O[C@H](C)C[C@H](N(C)C)[C@H]2O)[C@](C)(OC(=O)NCCc2ccccc2)C[C@@H](C)C(=O)[C@H](C)[C@H]2NC(=O)O[C@@]21C [Compound 3] | >16 | 1 (≈ 1.34 µM) | 8 (≈ 10.7 µM) | 4 (≈ 5.36 µM) | 0.12 µg/mL (≈ 0.161 µM) |  |  |  |  |  |
| CC[C@H]1OC(=O)[C@H](C)C(=O)[C@H](C)[C@@H](O[C@@H]2O[C@H](C)C[C@H](N(C)C)[C@H]2O)[C@](C)(OC(=O)NCCOCc2ccc(-c3ncccn3)cc2)C[C@@H](C)C(=O)[C@H](C)[C@H]2NC(=O)O[C@@]21C [Compound 107] | >16 | 0.12 (≈ 0.141 µM) | 4 (≈ 4.68 µM) | 0.25 (≈ 0.293 µM) | 0.06 µg/mL (≈ 0.0703 µM) |  |  |  |  |  |
| CC[C@H]1OC(=O)[C@H](C)C(=O)[C@H](C)[C@@H](O[C@@H]2O[C@H](C)C[C@H](N(C)C)[C@H]2O)[C@](C)(OC(=O)NC/C=C/c2cccc(-n3cncn3)n2)C[C@@H](C)C(=O)[C@H](C)[C@H]2NC(=O)O[C@@]21C [Compound 51] | >16 | 0.12 (≈ 0.145 µM) | 8 (≈ 9.69 µM) | 0.5 (≈ 0.605 µM) | 0.06 µg/mL (≈ 0.0726 µM) |  |  |  |  |  |
| CCC1OC(=O)C(C)(F)C(=O)C(C)C(OC2OC(C)CC(N(C)C)C2O)C(C)(OC(=O)NCC=Cc2ccc(-c3cccnn3)cc2)CC(C)C(=NO)C(C)C2NC(=O)OC12C (stereo not drawn) [Compound 125] | 16 (≈ 18.4 µM) | 0.25 (≈ 0.288 µM) | 2 (≈ 2.3 µM) | 0.5 (≈ 0.575 µM) | 0.06 µg/mL (≈ 0.069 µM) |  |  |  |  |  |
| CCC1OC(=O)C(C)(F)C(=O)C(C)C(OC2OC(C)CC(N(C)C)C2O)C(C)(OC(=O)NCC=Cc2ccc(-n3cccn3)cc2)CC(C)C(=O)C(C)C2NC(=O)OC12C (stereo not drawn) [Compound 91] | 16 (≈ 19 µM) | 0.12 (≈ 0.143 µM) | 4 (≈ 4.75 µM) | 0.25 (≈ 0.297 µM) | 0.06 µg/mL (≈ 0.0713 µM) |  |  |  |  |  |
| CC[C@H]1OC(=O)[C@H](C)C(=O)[C@H](C)[C@@H](O[C@@H]2O[C@H](C)C[C@H](N(C)C)[C@H]2O)[C@](C)(OC(=O)NCc2ccc(-n3cncn3)c(F)c2)C[C@@H](C)C(=O)[C@H](C)[C@H]2NC(=O)O[C@@]21C [Compound 55] | 16 (≈ 19.6 µM) | 0.12 (≈ 0.147 µM) | 4 (≈ 4.9 µM) | 0.5 (≈ 0.612 µM) | 0.03 µg/mL (≈ 0.0367 µM) |  |  |  |  |  |
| CC[C@H]1OC(=O)[C@H](C)C(=O)[C@H](C)[C@@H](O[C@@H]2O[C@H](C)C[C@H](N(C)C)[C@H]2O)[C@](C)(OC(=O)NCCCc2ccnc3ccccc23)C[C@@H](C)C(=O)[C@H](C)[C@H]2NC(=O)O[C@@]21C [Compound 25] | 8 (≈ 9.86 µM) | 0.06 (≈ 0.074 µM) | 4 (≈ 4.93 µM) | 0.25 (≈ 0.308 µM) | 0.03 µg/mL (≈ 0.037 µM) |  |  |  |  |  |
